Test results as given in patent US20060069132A1, “Azolecarboxamide herbicides” (priority 2004, published 2006).

Tests used:
barnyardgrass [1] = experiment: Test B pre-/postemergence herbicide test; type: in vivo, Echinochloa crus-galli; details: 0 = no effect, 100 = complete control, preemergence
Procedure, shortened: (§1)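 Evaluation is visual, comparing treated with control plants on a scale where 0 means no effect and 100 means full control. Treatments were preemergence, or postemergence on seedlings 2–18 cm tall, and held 13–15 days in the greenhouse.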

Surinam grass = experiment: Test B pre-/postemergence herbicide test; type: in vivo, Urochloa decumbens; details: for Surinam Grass plant response rating: postemergence, scale 0 (no effect) to 100 (complete control)
Procedure, shortened: (§2)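 Pre: seeds sown, then sprayed. Post: 1–4-leaf plants (2–18 cm) sprayed at the same time. Paddy: flooded, treated at 2-leaf stage. Formulation: non-phytotoxic solvent with surfactant. Greenhouse 13–15 days; visual 0–100 score relative to controls.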

cocklebur = experiment: Test B pre-/postemergence herbicide test; type: in vivo, Xanthium strumarium; details: for Cocklebur plant response rating: postemergence, scale 0 (no effect) to 100 (complete control)
Procedure, shortened: as §1

corn = experiment: Test B pre-/postemergence herbicide test; type: in vivo, Zea mays; details: for Corn plant response rating: postemergence, scale 0 (no effect) to 100 (complete control)
Procedure, shortened: as §2

large crabgrass = experiment: Test B pre-/postemergence herbicide test; type: in vivo, Digitaria sanguinalis; details: for Crabgrass, Large plant response rating: postemergence, scale 0 (no effect) to 100 (complete control)
Procedure, shortened: as §2

giant foxtail = experiment: Test B pre-/postemergence herbicide test; type: in vivo, Setaria faberi; details: for Foxtail, Giant plant response rating: postemergence, scale 0 (no effect) to 100 (complete control)
Procedure, shortened: as §2

lambsquarters = experiment: Test B pre-/postemergence herbicide test; type: in vivo, Chenopodium album; details: for Lambsquarters plant response rating: postemergence, scale 0 (no effect) to 100 (complete control)
Procedure, shortened: as §2

morningglory = experiment: Test B pre-/postemergence herbicide test; type: in vivo, Ipomoea coccinea; details: for Morningglory plant response rating: postemergence, scale 0 (no effect) to 100 (complete control)
Procedure, shortened: as §1

pigweed = experiment: Test B pre-/postemergence herbicide test; type: in vivo, Amaranthus retroflexus
Procedure, shortened: as §2

rice [2] = experiment: Test B pre-/postemergence herbicide test; type: in vivo, Oryza sativa; details: 0 = no effect, 100 = complete control, preemergence
Procedure, shortened: as §2

velvetleaf = experiment: Test B pre-/postemergence herbicide test; type: in vivo, Abutilon theophrasti; details: for Velvetleaf plant response rating: postemergence, scale 0 (no effect) to 100 (complete control)
Procedure, shortened: as §2

blackgrass = experiment: Test B postemergence herbicide test; type: in vivo, Alopecurus myosuroides; details: postemergence, visual rating, scale 0 (no effect) to 100 (complete control)
Procedure, shortened: (§3)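 Each value is a visual 0–100 response rating taken against controls 13 to 15 days after treatment in the greenhouse. Plants received formulated chemical postemergence at the 1- to 4-leaf stage or, in flooded paddy, at the 2-leaf stage.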

wheat = experiment: Test B postemergence herbicide test; type: in vivo, Triticum aestivum; parameters: key to Wheat plant response rating: 0 = no effect, 100 = complete control; details: postemergence, visual rating, scale 0 (no effect) to 100 (complete control)
Procedure, shortened: as §3

wild oat = experiment: Test B postemergence herbicide test; type: in vivo, Avena fatua; details: postemergence, visual rating, scale 0 (no effect) to 100 (complete control)
Procedure, shortened: as §3

rice [3] = experiment: Test B flooded paddy test; type: in vivo, Oryza sativa; details: 1000 g ai/ha, visual rating, scale 0 to 100 (0 no effect, 100 complete control), 13 to 15 days
Procedure, shortened: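 Plants grow to 1- to 4-leaf stage (2–18 cm) for postemergence spraying, or to 2-leaf stage for the paddy test. Formulated compound is applied. Greenhouse holding lasts 13–15 days. Response is scored visually relative to controls, 0 no effect to 100 complete control; a dash means no result.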

[4] = test system: small flower umbrella sedge; experiment: Test B flooded paddy test; type: in vivo, Cyperus difformis; details: 1000 g ai/ha, visual rating, scale 0 to 100 (0 no effect, 100 complete control), 13 to 15 days
Procedure, shortened: as §3

ducksalad [5] = experiment: Test B flooded paddy test; type: in vivo, Heteranthera limosa; details: 1000 g ai/ha, visual rating, scale 0 to 100 (0 no effect, 100 complete control), 13 to 15 days
Procedure, shortened: as §3

barnyardgrass [6] = experiment: Test B flooded paddy test; type: in vivo, Echinochloa crus-galli; details: 1000 g ai/ha, visual rating, scale 0 to 100 (0 no effect, 100 complete control), 13 to 15 days
Procedure, shortened: as §3

rice [7] = experiment: Test C flooded paddy test; type: in vivo, Oryza sativa
Procedure, shortened: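 Plants were grown to the 1- to 4-leaf stage (2–18 cm) and then treated postemergence, or grown to the 2-leaf stage for the flooded paddy test. They were held in a greenhouse for 12 to 14 days and then scored by eye against controls, where 0 is no effect and 100 is complete control.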

[8] = test system: smallflower umbrella sedge; experiment: Test C flooded paddy test; type: in vivo, Cyperus difformis
ducksalad [9] = experiment: Test C flooded paddy test; type: in vivo, Heteranthera limosa
barnyardgrass [10] = experiment: Test C flooded paddy test; type: in vivo, Echinochloa crus-galli
Procedure, shortened: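 Ratings (0 = no effect, 100 = complete control) come from visual comparison with untreated plants after 12 to 14 days in the greenhouse. Treatment was postemergence at the 1- to 4-leaf stage (2–18 cm), or at the 2-leaf stage for the flooded paddy barnyardgrass.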

[11] = 125 g ai/ha, 0 = no effect, 100 = complete control, preemergence
[12] = 500 g ai/ha, visual rating, 0 = no effect, 100 = complete control, preemergence
[13] = 62 g ai/ha, scale 0 to 100 (0 no effect, 100 complete control)
[14] = 125 g ai/ha, scale 0 to 100 (0 no effect, 100 complete control)
[15] = 250 g ai/ha, scale of 0 to 100, 0 is no effect, 100 is complete control
[16] = 500 g ai/ha, visual rating after 12 to 14 days, scale 0 to 100 (0 no effect, 100 complete control)

In the case of `CCN(C)C(=O)c1cccc(NC(=O)c2sc(C(C)(C)C)nc2C)c1` [Compound 227], the “Barnyardgrass plant response rating (0 to 100 scale)” value (barnyardgrass [1]; 125 g ai/ha) is reported as 0, the “Plant response rating, Barnyardgrass” value (barnyardgrass [1]; 500 g ai/ha, visual rating) is reported as 60 and the “Surinam Grass plant response rating (0 to 100 scale)” value (Surinam grass; [11]) is reported as 30. The “Plant response rating, Surinam Grass” value (Surinam grass; [12]) was 70, the “Surinam Grass plant response rating” value (Surinam grass; 125 g ai/ha, visual rating) was 10 and the “Surinam Grass plant response rating” value (Surinam grass; 500 g ai/ha, visual rating) was 30. For the same compound, the “Cocklebur plant response rating (0 to 100 scale)” value (cocklebur; [11]) was 0, the “Plant response rating, Cocklebur” value (cocklebur; [12]) was 0 and the “Cocklebur plant response rating” value (cocklebur; 125 g ai/ha, visual rating) was 20. The “Cocklebur plant response rating” value (cocklebur; 500 g ai/ha, visual rating) was 30, the “Corn plant response rating (0 to 100 scale)” value (corn; [11]) was 0 and the “Plant response rating, Corn” value (corn; [12]) was 50. The “Corn plant response rating” value (corn; 125 g ai/ha, visual rating) was 30, the “Corn plant response rating” value (corn; 500 g ai/ha, visual rating) was 40 and the “Crabgrass, Large plant response rating (0 to 100 scale)” value (large crabgrass; [11]) was 40. The “Plant response rating, Crabgrass, Large” value (large crabgrass; [12]) was 100, the “Crabgrass, Large plant response rating” value (large crabgrass; 125 g ai/ha, visual rating) was 30 and the “Crabgrass, Large plant response rating” value (large crabgrass; 500 g ai/ha, visual rating) was 30. The “Foxtail, Giant plant response rating (0 to 100 scale)” value (giant foxtail; [11]) was 10, the “Plant response rating, Foxtail, Giant” value (giant foxtail; [12]) was 70 and the “Foxtail, Giant plant response rating” value (giant foxtail; 125 g ai/ha, visual rating) was 10. The “Foxtail, Giant plant response rating” value (giant foxtail; 500 g ai/ha, visual rating) was 60, the “Lambsquarters plant response rating (0 to 100 scale)” value (lambsquarters; [11]) was 0 and the “Plant response rating, Lambsquarters” value (lambsquarters; [12]) was 90. The “Lambsquarters plant response rating” value (lambsquarters; 125 g ai/ha, visual rating) was 50, the “Lambsquarters plant response rating” value (lambsquarters; 500 g ai/ha, visual rating) was 70 and the “Morningglory plant response rating (0 to 100 scale)” value (morningglory; [11]) was 0. For the same compound, the “Plant response rating, Morningglory” value (morningglory; [12]) was 20, the “Morningglory plant response rating” value (morningglory; 125 g ai/ha, visual rating) was 50 and the “Morningglory plant response rating” value (morningglory; 500 g ai/ha, visual rating) was 60. The “Pigweed plant response rating (0 to 100 scale)” value (pigweed; [11]) was 0, the “Plant response rating, Pigweed” value (pigweed; [12]) was 100 and the “Pigweed plant response rating” value (pigweed; postemergence, 125 g ai/ha, visual rating, scale 0 (no effect) to 100 (complete control)) was 20. For the same compound, the “Rice plant response rating (0 to 100 scale)” value (rice [2]; 125 g ai/ha) was 10, the “Plant response rating, Rice” value (rice [2]; 500 g ai/ha, visual rating) was 70 and the “Velvetleaf plant response rating (0 to 100 scale)” value (velvetleaf; [11]) was 30. For the same compound, the “Plant response rating, Velvetleaf” value (velvetleaf; [12]) was 100, the “Velvetleaf plant response rating” value (velvetleaf; 125 g ai/ha, visual rating) was 20 and the “Velvetleaf plant response rating” value (velvetleaf; 500 g ai/ha, visual rating) was 70. The “Blackgrass plant response rating” value (blackgrass; 125 g ai/ha) was 20, the “Blackgrass plant response rating” value (blackgrass; 500 g ai/ha) was 30 and the “Wheat plant response rating” value (wheat; 125 g ai/ha) was 0. The “Wheat plant response rating” value (wheat; 500 g ai/ha) was 10, the “Oat, Wild plant response rating” value (wild oat; 125 g ai/ha) was 0 and the “Oat, Wild plant response rating” value (wild oat; 500 g ai/ha) was 0. The “Rice plant response rating” value (rice [3]) was 70, the “Sedge, Umbrella plant response rating” value [4] was 50 and the “Ducksalad plant response rating” value (ducksalad [5]) was 80. For the same compound, the “Barnyardgrass plant response rating” value (barnyardgrass [6]) was 70, the “Rice plant response rating” value (rice [7]; [13]) was 0 and the “Rice plant response rating” value (rice [7]; [14]) was 0. The “Rice plant response rating” value (rice [7]; [15]) was 25, the “Plant response rating, Rice” value (rice [7]; [16]) was 55 and the “Sedge, Umbrella plant response rating” value [8, 13] was 0. The “Sedge, Umbrella plant response rating” value [8, 14] was 0, the “Sedge, Umbrella plant response rating” value [8, 15] was 0 and the “Plant response rating, Sedge, Umbrella” value [8, 16] was 15. For the same compound, the “Ducksalad plant response rating” value (ducksalad [9]; [13]) was 0, the “Ducksalad plant response rating” value (ducksalad [9]; [14]) was 0 and the “Ducksalad plant response rating” value (ducksalad [9]; [15]) was 0. The “Plant response rating, Ducksalad” value (ducksalad [9]; [16]) was 55, the “Barnyardgrass plant response rating” value (barnyardgrass [10]; [13]) was 0 and the “Barnyardgrass plant response rating” value (barnyardgrass [10]; [14]) was 0. For the same compound, the “Barnyardgrass plant response rating” value (barnyardgrass [10]; [15]) was 0 and the “Plant response rating, Barnyardgrass” value (barnyardgrass [10]; [16]) was 0.
